Where two headings read alike, the source gives them in different places.
Assays:
[1] = tested on: Sprague Dawley rats; type: in vivo, rat
Method: Groups of 5 animals sex^−1 were sacrificed on Study Days 3 (48 h) and 15 for evaluation of clinical pathology and organ toxicity. […] Parameters evaluated for test article effect included survival, clinical observations, body weight, body weight gain, clinical pathology, gross pathology, organ weights, and microscopic pathology.
The purpose of this study was to evaluate the toxicity of [19F]FP-R 1-MG-F2 following a single […]
intra ven ous dose in rats. This study consisted of one test article treatment group of ten male and ten fem ale Spr ague-Dawley rats dosed with [19F]FP-R 1-MG-F2 (note - sm all m olecule […]
[…] An additio na l grou p of ten m ales and ten females received the vehicle, 10% Ethanol in Sterile Saline, and ser ved as the control. All rats received a dose volum e of 5 m L/k g. T he rats were dosed intravenous ly onc e on Stud y Da y 1.
Five m ale and five fem ale rats from each group were bled on Stud y Da y 3 and the rem aining rats were bled on Stud y D ay 15. All an im als were e u than ized a nd necrops ied f ollo wing b loo d collect ion . Param eters evalu ated f or test art icle ef f ect inclu ded sur viva l, clin ica l obser vat ions, bod y weight, bod y weight gain, clinical patholog y, gross pathology, organ weights, and […]
the study. No abnorm al findings were indicated dur ing mortality checks (cagesides) or hands-on […]
be related to treatm ent related.
Under the conditions of this study, there were no treatm ent related findings in Sprague Dawley rats three or fifteen da ys after a single intravenous dose of [19F]FP-R01-MG-F2 at 1.10 mg/kg. […]
intravenous dose in rats. […]
The test article (TA), [19F]FP-R 1-MG-F2, was received from the Sponsor on Aug ust 25, […]
2014, described as a wh ite po wd er . The test article was stored frozen in a g lass vial.
Copies of the Test Artic le Data Sheets are included in Appendix D.
Note: Test article nam e as per the Qualit y Control Record (Appendix D) is listed as FP-GLY-36-Gly-NH2, which represents the chem ical structure. T he test article is referred to b y the comm ercial nam e provided b y the client ([19F]FP-R 1-MG-F2) throughout this report and […]
Name Lot No. Supplier Purit y
The vehicle used in this study was 10% Ethanol in Sterile Saline (0.9% sodium chloride, USP). The vehic le com ponents were purchased commercially b y SoBran and stored at room tem perature in accordance with the m anufacturer instructions. Copies of the Certificate of Anal yses for the lots of 10% Ethanol and Sterile Saline used are included in […]
Name Lot No. Supplier Concentration
Etha no l (20 0 pro of ), USP SHBB0 212 V Sigm a Aldrich; Sa int 99.87% […]
0.9% Sod ium Chlor ide, USP C886374 Baxter; C le ve lan d, 0.888% […]
The 0.22 mg/mL test article solution was pr epar ed b y adding 40 mL of 10% ethanol solution (vehicle control) to 8.8 mg of the test article, mixed gently, and then filtered using a 2µ sterile syringe filter. The pH of the 10% ethanol solution wa s adj us ted us ing HCl and NaO H to achieve a pH of 7.4. The vehicle was passed through a 2µ sterile syringe filter af t er pH […]
On October 2, 2014, 21 male and 21 female Sprague-Dawle y rats were obtained from Harlan, Frederick , MD. The supplier verified that the anim als were free of specific active inf ectious dise ases prior to arriva l at the SoBra n f acilit y. At init iat ion of dosing , the m ale and fem ale rats were 7 week s of age, (Date of Birth: 8/15/14). At ra ndom iza tion th e bod y weights of the rats used on stud y ranged from 199.05 to 218.61 gram s (m ales) […]
Rats were chosen for use in this stud y since the y are considered an acceptable anim al model for the rodent species for acute toxicity tests prior to clinical use.
The animals were housed following the specifications recommended in The Guide for the […]

[2] = target: T1, human integrin αvβ6 (Homo sapiens, UniProt P06756+P18564, DEL708-788); test: Competition binding (IC50) against yeast surface-displayed R01-MG; conditions: for binding affinity for integrin avb6 in competition binding (IC50), in words: compete with R01-MG displayed on yeast
T1 construct: purchased R&D Systems

[3] = tested on: pancreatic cancer; test: [18F]FP-R01-MG-F2 vs [18F]FDG PET/CT in a pancreatic cancer patient (Stanford); conditions: FDG, 1 hr
Method: The line was flushed with at least 10 ml normal saline after injection. • Blood samples for blood time activity measurements were taken at 1, 3, 5, and 10 min after tracer administration and then at 30-minute intervals for up to 3 h after tracer injection. The counts in whole blood and plasma were measured by gamma counter (Perkin Elmer Wizard 1470). […] The scan was performed over the abdominal region to include the pancreas. Attenuation correction was employed via CT (120 kV, 10 mA). […] The scan was performed over the chest region. Attenuation correction was employed via CT (120 kV, 10 mA). • Static total-body (vertex-to-toe) PET/CT scans were acquired at 60 min and 120 min post injection. CT was performed at 120 kV; it was dose-modulated based on body habitus with current ranging from 10-105 mA for the 60-minute scan. […] EKG data was analyzed to assess changes in overall rhythm of the heart. • On the day of the study, participants were asked to void frequently to reduce radiation exposure. Urine samples were collected at prior to tracer administration (baseline), prior to the static PE scans, at the end of the study day 1, and at the follow up visits 1 day and 7 days after tracer administration.
Upon co-registration of the PET and CT images, the CT images were used to determine regions of interest for the organs or tissues reported in the manuscript. These ROIs were applied to the PET images of the brain, pituitary gland, breast, lower and upper large intestine, small intestine, stomach, pancreas, heart wall, liver, lung, muscle, red marrow, bone, skin, and thyroid gland. For high uptake organs such as the kidneys, bladder and for the whole body, threshold-based segmentation of PET images were used to determine a close-fitting ROI around the entire organ or whole body. In order to determine accuracy, these PET-derived ROIs were compared to the CT overlay for a close match.

[4] = Day 3, Group 2 males, p < 0.05, within historical range

T1 sequence (P06756 31-992 limits assumed, stated change not applied): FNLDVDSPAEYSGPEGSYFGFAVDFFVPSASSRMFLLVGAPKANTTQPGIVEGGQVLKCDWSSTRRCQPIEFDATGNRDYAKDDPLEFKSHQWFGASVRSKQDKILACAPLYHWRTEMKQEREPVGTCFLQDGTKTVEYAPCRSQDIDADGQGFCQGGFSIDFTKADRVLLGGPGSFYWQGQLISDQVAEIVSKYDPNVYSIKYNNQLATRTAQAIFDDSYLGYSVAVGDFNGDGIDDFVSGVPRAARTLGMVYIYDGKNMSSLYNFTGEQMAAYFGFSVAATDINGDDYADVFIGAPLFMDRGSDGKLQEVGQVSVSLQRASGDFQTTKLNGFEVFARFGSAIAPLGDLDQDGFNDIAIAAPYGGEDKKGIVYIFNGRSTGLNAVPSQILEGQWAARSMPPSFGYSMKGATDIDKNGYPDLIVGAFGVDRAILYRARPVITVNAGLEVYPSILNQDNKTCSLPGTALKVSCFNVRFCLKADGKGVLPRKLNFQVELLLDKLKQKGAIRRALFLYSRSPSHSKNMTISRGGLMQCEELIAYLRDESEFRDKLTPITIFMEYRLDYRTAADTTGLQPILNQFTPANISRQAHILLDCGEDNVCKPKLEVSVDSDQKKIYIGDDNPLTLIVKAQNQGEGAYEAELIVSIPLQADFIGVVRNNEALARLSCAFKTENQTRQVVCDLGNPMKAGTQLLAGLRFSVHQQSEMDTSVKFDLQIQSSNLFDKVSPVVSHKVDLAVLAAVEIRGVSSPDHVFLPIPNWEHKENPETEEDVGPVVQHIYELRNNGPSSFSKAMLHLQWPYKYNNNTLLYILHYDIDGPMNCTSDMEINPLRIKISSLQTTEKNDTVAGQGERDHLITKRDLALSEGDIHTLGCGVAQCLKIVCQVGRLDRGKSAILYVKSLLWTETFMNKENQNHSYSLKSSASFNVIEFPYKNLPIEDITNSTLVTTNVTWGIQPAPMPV
T1 sequence (P18564 22-707 limits assumed, stated change not applied): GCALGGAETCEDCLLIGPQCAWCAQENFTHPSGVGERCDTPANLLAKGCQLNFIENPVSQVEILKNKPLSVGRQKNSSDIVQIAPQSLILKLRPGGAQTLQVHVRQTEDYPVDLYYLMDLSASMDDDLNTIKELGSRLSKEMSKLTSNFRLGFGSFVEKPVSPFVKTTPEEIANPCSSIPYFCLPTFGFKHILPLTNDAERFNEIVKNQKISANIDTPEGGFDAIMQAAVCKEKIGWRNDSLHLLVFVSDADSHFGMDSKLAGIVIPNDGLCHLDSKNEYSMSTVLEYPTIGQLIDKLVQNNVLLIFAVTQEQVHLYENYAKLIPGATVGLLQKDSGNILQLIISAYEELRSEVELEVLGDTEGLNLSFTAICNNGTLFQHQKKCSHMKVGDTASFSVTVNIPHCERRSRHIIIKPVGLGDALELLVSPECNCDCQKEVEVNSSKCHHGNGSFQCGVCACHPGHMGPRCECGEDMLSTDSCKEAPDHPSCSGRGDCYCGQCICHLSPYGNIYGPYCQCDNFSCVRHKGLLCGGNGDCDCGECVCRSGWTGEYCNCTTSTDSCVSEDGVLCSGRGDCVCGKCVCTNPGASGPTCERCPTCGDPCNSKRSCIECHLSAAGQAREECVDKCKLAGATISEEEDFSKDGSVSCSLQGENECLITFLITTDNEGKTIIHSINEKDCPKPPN

Structure (SMILES): CC[C@H](C)[C@@H]1NC(=O)[C@@H](NC(=O)CNC(=O)[C@@H](C)F)CSSC[C@@H]2NC(=O)[C@H](C)NC(=O)CNC(=O)[C@@H]3CCCN3C(=O)[C@@H]3CSSC[C@@H](C(=O)NCC(N)=O)NC(=O)[C@H](Cc4ccc(O)cc4)NC(=O)CNC(=O)[C@H](CC(N)=O)NC(=O)CNC(=O)[C@H](CCCNC(=N)N)NC(=O)[C@H](CSSC[C@H](NC(=O)[C@H](CCCNC(=N)N)NC(=O)[C@H](Cc4ccccc4)NC(=O)[C@H](CC(C)C)NC(=O)[C@H](CC(C)C)NC(=O)[C@H]([C@@H](C)O)NC(=O)CNC(=O)[C@H](CC(C)C)NC(=O)[C@H](CC(=O)O)NC(=O)[C@H]([C@@H](C)O)NC(=O)[C@H](CCCNC(=N)N)NC(=O)CNC(=O)[C@H](CC(N)=O)NC(=O)[C@H](CC(C)C)NC1=O)C(=O)N[C@@H](CCCNC(=N)N)C(=O)N[C@@H](CCCNC(=N)N)C(=O)N[C@@H](CC(=O)O)C(=O)N[C@@H](CO)C(=O)N[C@@H](CC(=O)O)C(=O)N3)NC(=O)[C@H]([C@@H](C)CC)NC2=O [[^19F]FP-R01-MG-F2]
- Organ weight, Brain, mean ([1]; Day 3, Group 2 females): 1.5766
- Organ weight, Eyes with optic nerve, mean ([1]; Day 3, Group 2 females): 0.2641
- Organ weight, Heart, mean ([1]; Day 3, Group 2 females): 0.6540
- Organ weight, Kidneys, mean ([1]; Day 3, Group 2 females): 1.2874
- Organ weight, Liver, mean ([1]; Day 3, Group 2 females): 5.9521
- Organ weight, Lungs, mean ([1]; Day 3, Group 2 females): 1.5304
- Organ weight, Ovaries, mean ([1]; Day 3, Group 2 females): 0.1595
- Organ weight, Spleen, mean ([1]; Day 3, Group 2 females): 0.4955
- Organ weight, Thyroid (both lobes with parathyroid), mean ([1]; Day 3, Group 2 females): 0.0479
- Organ weight, Brain, mean ([1]; Day 3, Group 2 males): 1.7081
- Organ weight, Eyes with optic nerve, mean ([1]; Day 3, Group 2 males): 0.3216
- Organ weight, Heart, mean ([1]; Day 3, Group 2 males): 0.9438
- Organ weight, Kidneys, mean ([1]; Day 3, Group 2 males): 1.7156
- Organ weight, Liver, mean ([1]; Day 3, Group 2 males): 8.4988
- Organ weight, Lungs, mean ([1]; Day 3, Group 2 males): 1.6368
- Organ weight, Spleen, mean ([1]; Day 3, Group 2 males): 0.6601
- Organ weight, Testes, mean ([1]; Day 3, Group 2 males): 2.9952
- Organ weight, Thyroid (both lobes with parathyroid), mean ([1]; Day 3, Group 2 males): 0.0299
- alkaline phosphatase (ALP) vs control ([1]; Day 3, Group 2 males, p < 0.05, not believed biologically meaningful): increase
- absolute large unstained cell counts (ALUC) vs control [1, 4]: increased
- absolute lymphocyte counts (ALY) vs control [1, 4]: increased
- absolute monocyte counts (AMO) vs control [1, 4]: increased
- white blood cell counts (WBC) vs control [1, 4]: increased
- Organ weight, Brain, mean ([1]; Day 15, Group 2 females): 1.5915
- Organ weight, Eyes with optic nerve, mean ([1]; Day 15, Group 2 females): 0.2965
- Organ weight, Heart, mean ([1]; Day 15, Group 2 females): 0.7068
- Organ weight, Kidneys, mean ([1]; Day 15, Group 2 females): 1.3894
- Organ weight, Liver, mean ([1]; Day 15, Group 2 females): 7.3444
- Organ weight, Lungs, mean ([1]; Day 15, Group 2 females): 1.5063
- Organ weight, Ovaries, mean ([1]; Day 15, Group 2 females): 0.1569
- Organ weight, Spleen, mean ([1]; Day 15, Group 2 females): 0.5718
- Organ weight, Thyroid (both lobes with parathyroid), mean ([1]; Day 15, Group 2 females): 0.0355
- activated partial thromboplastin time vs control ([1]; Day 15, Group 2 females, p < 0.05, within historical range): decrease
- Organ weight, Brain, mean ([1]; Day 15, Group 2 males): 1.5942
- Organ weight, Eyes with optic nerve, mean ([1]; Day 15, Group 2 males): 0.3204
- Organ weight, Heart, mean ([1]; Day 15, Group 2 males): 1.0593
- Organ weight, Kidneys, mean ([1]; Day 15, Group 2 males): 2.1137
- Organ weight, Liver, mean ([1]; Day 15, Group 2 males): 11.2236
- Organ weight, Lungs, mean ([1]; Day 15, Group 2 males): 2.0208
- Organ weight, Spleen, mean ([1]; Day 15, Group 2 males): 0.6991
- Organ weight, Testes, mean ([1]; Day 15, Group 2 males): 3.5798
- Organ weight, Thyroid (both lobes with parathyroid), mean ([1]; Day 15, Group 2 males): 0.0238
- mean corpuscular hemoglobin (MCH) vs control ([1]; Day 15, Group 2 males, p < 0.05, within historical range): increase
- alanine aminotransferase (ALT) vs control ([1]; Days 3 and 15, Group 2 males, p < 0.05, not believed biologically meaningful): elevated
- organ weights and microscopic pathology findings ([1]; […] single i.v.): No treatm ent-related findings
- bodyweights of treated females on Day 3 vs control ([1]; p < 0.05, judged not treatment related): significant increase
- IC50 [2]: 0.56 ± 0.46 nM
- binding affinity for integrin avb6 in competition binding (IC50), in words [2]: subnanomolar

Structure (SMILES): OC[C@H]1O[C@@H](O)[C@H]([18F])[C@@H](O)[C@@H]1O [FDG]
- Bl, PET uptake [3]: 21.1
- Bn, PET uptake [3]: 1.4
- Br, PET uptake [3]: 8.1
- Brs, PET uptake [3]: 0.32
- CA, PET uptake [3]: 4.1
- HW, PET uptake [3]: 2
- LLI, PET uptake [3]: 2.2
- Ln, PET uptake [3]: 0.59
- Lv, PET uptake [3]: 2.9
- Ms, PET uptake [3]: 0.53
- RM, PET uptake [3]: 0.29
- SI, PET uptake [3]: 2.5
- Sk, PET uptake [3]: 0.38
- Sp, PET uptake [3]: 2.9
- St, PET uptake [3]: 0.16
- Tr, PET uptake [3]: 0.9
- ULI, PET uptake [3]: 1.8
- WB, PET uptake [3]: 0.79

Structure (SMILES): CC[C@H](C)[C@@H]1NC(=O)[C@@H](NC(=O)CNC(=O)C(C)F)CSSC[C@@H]2NC(=O)[C@H](C)NC(=O)CNC(=O)[C@@H]3CCCN3C(=O)[C@@H]3CSSC[C@@H](C(=O)NCC(N)=O)NC(=O)[C@H](Cc4ccc(O)cc4)NC(=O)CNC(=O)[C@H](CC(N)=O)NC(=O)CNC(=O)[C@H](CCCNC(=N)N)NC(=O)[C@H](CSSC[C@H](NC(=O)[C@H](CCCNC(=N)N)NC(=O)[C@H](Cc4ccccc4)NC(=O)[C@H](CC(C)C)NC(=O)[C@H](CC(C)C)NC(=O)[C@H]([C@@H](C)O)NC(=O)CNC(=O)[C@H](CC(C)C)NC(=O)[C@H](CC(=O)O)NC(=O)[C@H]([C@@H](C)O)NC(=O)[C@H](CCCNC(=N)N)NC(=O)CNC(=O)[C@H](CC(N)=O)NC(=O)[C@H](CC(C)C)NC1=O)C(=O)N[C@@H](CCCNC(=N)N)C(=O)N[C@@H](CCCNC(=N)N)C(=O)N[C@@H](CC(=O)O)C(=O)N[C@@H](CO)C(=O)N[C@@H](CC(=O)O)C(=O)N3)NC(=O)[C@H]([C@@H](C)CC)NC2=O (stereo partly shown) [[^19F]FP-R01-MG-F1]
- binding affinity for integrin avb6 in competition binding (IC50), in words [2]: subnanomolar

From publication PMC6791878, “Evaluation of integrin αvβ6 cystine knot PET tracers to detect cancer and idiopathic pulmonary fibrosis” (Nature Communications, 2019)
